Results from patent EP4678644A1, “SUBSTITUTED DIHYDROTHIENOPYRIMIDINE COMPOUND, PREPARATION METHOD THEREFOR, AND USE THEREOF” (Shanghai Yidi Biotechnology Co., Ltd., priority 2023, dated 2024).

Assays:
PDE4D2 = PDE4D2 (Homo sapiens, UniProt Q08499); test: PDE4D2 enzyme experiment (AMP-glo, cAMP substrate); type: biochemical; conditions: read-out: PDE4D2 IC50 Binding
Text: Inhibition rate % ^= (1 - (RLUpositive control - RLUcompound)/(RLUpositive control - RLUnegative control)) * 100.

PDE4B2 [1] = molecular target: T1, PDE4B2 (Homo sapiens, UniProt Q07343); test: PDE4B2 cell experiment (cAMP, Eu-cAMP tracer / Ulight-anti-cAMP); type: cell-based; conditions: Flpin-293-PDE4B2 cells; for IC50: Foskolin
T1 construct: expressed in transfected cells; host or cells: Flp-In-293 (Flpin-293-PDE4B2 [sic])
T1 sequence (Q07343 1-564 isoform Q07343-2): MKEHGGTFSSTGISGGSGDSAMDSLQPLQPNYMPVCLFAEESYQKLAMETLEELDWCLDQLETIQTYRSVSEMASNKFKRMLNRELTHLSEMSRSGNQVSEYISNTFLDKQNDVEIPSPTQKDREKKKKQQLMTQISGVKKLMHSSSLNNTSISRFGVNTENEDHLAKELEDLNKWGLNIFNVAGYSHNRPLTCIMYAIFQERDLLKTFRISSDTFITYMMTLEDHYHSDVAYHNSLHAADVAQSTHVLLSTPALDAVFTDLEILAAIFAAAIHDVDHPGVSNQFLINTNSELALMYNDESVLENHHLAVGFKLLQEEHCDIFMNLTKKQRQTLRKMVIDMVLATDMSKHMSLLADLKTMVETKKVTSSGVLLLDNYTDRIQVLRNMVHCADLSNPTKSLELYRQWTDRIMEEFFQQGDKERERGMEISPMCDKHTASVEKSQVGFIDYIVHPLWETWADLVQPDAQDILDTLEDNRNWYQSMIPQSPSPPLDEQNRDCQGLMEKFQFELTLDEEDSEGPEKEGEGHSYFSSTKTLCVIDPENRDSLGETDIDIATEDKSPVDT

PDE4B2 [2] = molecular target: T1, PDE4B2; test: PDE4B2 enzyme experiment (AMP-glo, cAMP substrate); type: biochemical

Sequence of PDE4D2 (Q08499 303-809 limits assumed): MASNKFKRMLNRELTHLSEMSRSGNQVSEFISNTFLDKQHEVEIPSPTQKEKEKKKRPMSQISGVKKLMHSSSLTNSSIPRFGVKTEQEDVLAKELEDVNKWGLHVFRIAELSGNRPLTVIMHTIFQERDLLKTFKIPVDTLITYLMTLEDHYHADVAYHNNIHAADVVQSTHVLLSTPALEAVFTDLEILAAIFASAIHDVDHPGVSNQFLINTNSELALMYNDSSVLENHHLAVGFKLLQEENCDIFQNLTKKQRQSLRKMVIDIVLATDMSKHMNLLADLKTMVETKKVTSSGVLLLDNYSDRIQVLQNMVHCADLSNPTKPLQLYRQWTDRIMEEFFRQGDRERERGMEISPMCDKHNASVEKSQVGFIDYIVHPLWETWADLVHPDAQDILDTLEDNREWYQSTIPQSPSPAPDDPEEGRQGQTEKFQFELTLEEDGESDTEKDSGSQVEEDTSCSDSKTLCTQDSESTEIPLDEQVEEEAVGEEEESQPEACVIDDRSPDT

IC50 (PDE4D2)	Cell Inhibition% @1 nM (PDE4B2 [1])	Cell Inhibition% @10 nM (PDE4B2 [1]; 10 nM)	Cell Inhibition% @100 nM (PDE4B2 [1]; 100 nM)	IC50 (PDE4B2 [2])	IC50 (PDE4B2 [1])	Compound	inhibition at 0.01 µM (PDE4B2 [1]; 10 nM)	inhibition at 0.1 µM (PDE4B2 [1]; 100 nM)
0.157 nM	41.7%	97.0%	101.1%	0.085 nM	–	[O-][S+]1CCc2nc(N3CCc4cc(-c5cnco5)ccc4C3)nc(NC3(CO)CCC3)c21 (stereo not shown) [Compound 85]	–	–
1.46 nM	–	–	–	0.97 nM	14.8 nM	COc1ccc2c(c1)CCN(c1nc3c(c(NC4(CO)CCC4)n1)[S+]([O-])CC3)C2 (stereo not shown) [Compound 22]	–	–
18.1 nM	-0.97%	6.68%	25.39%	5.43 nM	–	O=C(O)Cc1ccc(Nc2nc(N3CCc4cc(Cl)ccc4C3)nc3c2[S@@+]([O-])CC3)cc1 [Compound 128]	–	–
0.655 nM	14.20%	47.36%	96.42%	0.332 nM	–	[O-][S+]1CCc2nc(N3CCc4cc(I)ccc4C3)nc(NC3(CO)CCC3)c21 (stereo not shown) [Compound 67]	–	–
4.75 nM	–	42.65%	85.82%	2.12 nM	–	[O-][S+]1CCc2nc(N3Cc4ccc(Br)cc4C3)nc(NC3(CO)CCC3)c21 (stereo not shown) [Compound 59]	–	–
0.764 nM	19.08%	77.47%	99.87%	0.366 nM	–	COc1ccc2sc3c(c2c1)CCN(c1nc2c(c(NC4(CO)CCC4)n1)[S+]([O-])CC2)C3 (stereo not shown) [Compound 82]	–	–
0.603 nM	14.02%	61.02%	94.24%	0.344 nM	–	CS(=O)(=O)c1ccc2c(c1)CCN(c1nc3c(c(NC4(CO)CCC4)n1)[S+]([O-])CC3)C2 (stereo not shown) [Compound 93]	–	–
1.07 nM	5.79%	47.82%	97.34%	0.621 nM	–	[O-][S+]1CCc2nc(N3CC[C@@H]4c5ccccc5OC[C@H]4C3)nc(NC3(CO)CCC3)c21 (stereo partly shown) [Compound 83]	–	–
4.17 nM	-0.82%	37.35%	95.13%	1.41 nM	–	[O-][S+]1CCc2nc(N3CC[C@@H]4c5cc(Cl)ccc5OC[C@H]4C3)nc(NC3(CO)CCC3)c21 (stereo partly shown) [Compound 108]	–	–

Continued, compound first:

Compound	IC50 (PDE4D2)	Cell Inhibition% @1 nM (PDE4B2 [1])	Cell Inhibition% @10 nM (PDE4B2 [1]; 10 nM)	Cell Inhibition% @100 nM (PDE4B2 [1]; 100 nM)	IC50 (PDE4B2 [2])	IC50 (PDE4B2 [1])	inhibition at 0.01 µM (PDE4B2 [1]; 10 nM)	inhibition at 0.1 µM (PDE4B2 [1]; 100 nM)
[O-][S+]1CCc2nc(N3CCc4cc(-n5ccnc5)ccc4C3)nc(NC3(CO)CCC3)c21 (stereo not shown) [Compound 90]	0.385 nM	14.99%	65.79%	97.23%	0.19 nM	–	–	–
[O-][S@+]1CCc2nc(N3CCn4c(nc5ccc(Cl)cc54)C3)nc(NC3(CO)CCC3)c21 [Compound 6, (R)-2-(7-chloro-3,4-dihydrobenzo[4,5]imidazo[1,2-a]pyrazin-2(1H)-yl)-4-((1-(hydroxymethyl)cyclobutyl)amino)-6,7-dihydrothieno[3,2-d]pyrimidine 5-oxide]	0.473 nM	–	–	–	0.41 nM	8.2 nM	–	–
CN1CCN(c2ccc3c(c2)CCN(c2nc4c(c(NC5(CO)CCC5)n2)[S+]([O-])CC4)C3)C1=O (stereo not shown) [Compound 86]	0.481 nM	8.69%	63.13%	97.77%	0.24 nM	–	–	–
[O-][S+]1CCc2nc(N3CC[C@H]4c5ccc(Cl)cc5OC[C@H]4C3)nc(NC3(CO)CCC3)c21 (stereo partly shown) [Compound 116]	12.4 nM	2.17%	16.91%	73.36%	3.01 nM	–	–	–
[O-][S+]1CCc2nc(N3CCc4ncsc4C3)nc(NC3(CO)CCC3)c21 (stereo not shown) [Compound 15]	28.6 nM	–	–	–	20.4 nM	150 nM	–	–
[O-][S@+]1CCc2nc(N3CCc4sc(I)cc4C3)nc(NC3(CO)CCC3)c21 [Compound 56, (R)-4-((1-(hydroxymethyl)cyclobutyl)amino)-2-(2-iodo-6,7-dihydrothieno[3,2-c]pyridin-5(4H)-yl)-6,7-dihydrothieno[2,2-d]pyrimidine 5-oxide]	1.95 nM	–	–	–	0.998 nM	–	40.6%	90.2%
